Assay results: patent US8946201B2, “Methods for inhibiting TGF-β” (Saint Louis University, priority 2007, dated 2015)

Assays:
Format in all cases: cell-based, mink
PAI-1 expression = assay: TGF-β1-induced PAI-1 expression, Northern blot, Mv1Lu cells; conditions: for enhancement of PAI-1 expression: 1 μM, 16 hr
Method: (§1) (A, B, C, D, E, F) Cells were treated with 50 μg/ml cholesterol (A, B, C, D) and 50 μg/ml LDL (D) at 37° C. for 1 hr or with 1 μM fluvastatin or lovastatin (E) or several concentrations of fluvastatin (F) at 37° C. for 16 hr and then further incubated with increasing concentrations (as indicated) of TGF-β1 (A, B, C, E) or 50 pM TGF-β1 (D,F) for 2 hr. Northern blot analysis of PAI-1 and G3PDH was performed. A representative of a total of three analyses is shown (a). The relative intensities of the transcripts were quantified with a PhosphoImager. The ratio of the relative intensities of PAI-1 and G3PDH transcripts in cells treated without TGF-β1 and cholesterol, LDL or statins on the blot was taken as 1 fold or 100% of PAI-1 expression. The quantitative data from three independent analyses is shown (b). […] (G) Mv1Lu cells stably expressing a luciferase reporter gene driven by the PAI-1 promoter (MLECs-clone 32) were treated with increasing concentrations (as indicated) of cholesterol at 37 EC for 1 hr (a) or with 1 μM lovastatin at 37° C. for 16 hr (b) and then further incubated with 50 pM TGF-β for 7 hr. The luciferase activity in cells treated without cholesterol was taken as 100% (a). […] (H) Cells were incubated with 0.0625 and 0.125 pM TGF-β1 in the presence of increasing concentrations of cholesterol, as indicated. […] The experiments were carried out in triplicate.

TβR-I and TβR-II = assay: Lipid raft / non-lipid raft localization by sucrose density gradient ultracentrifugation, Mv1Lu cells; conditions: for plasma membrane microdomain localization of TβR-II (FIG. 5F): 1 μM statin 16 hr, nystatin 25 μg/ml or cholesterol 50 μg/ml 1 hr
Method: (A, B, C, D) Cells were treated with or without 50 μg/ml cholesterol (A,B,C,D) or several concentrations of cholesterol, as indicated in the presence and absence of 1% β-CD (E) at 37° C. for 1 hr and further incubated with (C,D) and without (A,B) 50 pM TGF-β1 for 1 hr. The cell lysates from these treated cells were subjected to sucrose density gradient ultracentrifugation. After ultracentrifugation, fractions were collected and analyzed by 7.5% SDS-PAGE followed by Western blot analysis using antibodies to TβR-I, TβR-II and caveolin-1. […] Fractions 4 and 5 represent fractions containing lipid rafts/caveolae whereas fractions 7 and 8 represent non-lipid raft fractions.
(F, G) Cells were treated with or without 1 μM lovastatin/fluvastatin or nystatin (25 μg/ml)/cholesterol (50 μg/ml) at 37° C. for 16 hr or 1 hr, respectively. The treated cells were directly analyzed by sucrose density gradient ultracentrifugation analysis (F) or further incubated with 50 pM TGF-β at 37° C. for several time periods as indicated (G). Western blot analysis of the sucrose density gradient fractions (F) and of TGF-β1-treated cell lysates (G) was performed using antibody to TβR-II. The relative levels of TβR-II and α-actin were quantified by densitometry. Fractions ⅘ and 7 represent lipid raft/caveolae and non-lipid raft fractions, respectively. The asterisk (*) indicates the increased level of TβR-II in the fraction (F). The ratio of the relative intensities of TβR-II and α-actin in cells treated without TGF-β1 was taken as 100% of the TβR-II level. A representative of a total of three independent analyses is shown (G, top). The quantitative data from three independent analyses is shown (G, bottom). The data bar represents the mean±S.D.
Mv1Lu, CHO-K1, or NRK cells were grown to near confluence in 100-mm dishes (5-10×10^6 per dish). Cells were incubated with cholesterol ([…]) at 37° C. for 1 hours and then incubated with TGF-β1 (100 pM) for 1 hr. After two washes with ice-cold phosphate-buffered saline, cells were scraped into 0.85 ml of 500 mM sodium carbonate, pH 11.0. Homogenization was carried out with 10 strokes of a tight-fitting Dounce homogenizer followed by three 20-s bursts of ultrasonic disintegrator, (Soniprep 150; Fisher Scientific) to disrupt cellular membranes as described previously (32). The homogenates were adjusted to 45% sucrose by addition of 0.85 ml of 90% sucrose in 25 mM 2-(N-morpholino) ethanesulfonic acid, pH 6.5, 0.15 M NaCl (MBS), and placed at the bottom of an ultracentrifuge tube. […] Ten 0.5-ml fractions were collected from the top of the tubes, and a portion of each fraction was analyzed by SDS-PAGE followed by Western blot analysis using antibodies to TβR-I and TβR-II and caveolin-1. […]

[1] = system: luciferase reporter gene driven by the PAI-1 promoter; assay: Luciferase activity assay, MLECs-clone 32
Method: as §1

Row | Structure (SMILES) | suppression of TGF-β1-stimulated PAI-1 expression (PAI-1 expression; 50 μg/ml, TGF-β1 2 to 100 pM, Mv1Lu cells) | plasma membrane microdomain localization of TβR-II (FIG. 5F) (TβR-I and TβR-II) | localization of TβR-I and TβR-II in plasma membrane fractions (TβR-I and TβR-II; 50 μg/ml, 1 hr, fractions 4 and 5) | effect of cholesterol alone on TGF-β-stimulated luciferase activity ([1]; 25 ug/ml, without lovastatin) | suppression of TGF-β1-stimulated luciferase activity ([1]; 50 μg/ml, 50 pM TGF-β1) [%] | luciferase activity ([1]; cells treated with cholesterol (25 ug/ml), lovastatin and TGF-β1) [A.U] | effect on the stimulatory effect of lovastatin on TGF-β-stimulated luciferase activity ([1]; cholesterol 25 ug/ml for 1 hr prior to TGF-β stimulation) | enhancement of PAI-1 expression (PAI-1 expression; 10 pM TGF-β1, Mv1Lu cells) | enhancement of PAI-1 expression (PAI-1 expression; 50 pM TGF-β1, Mv1Lu cells) [fold] | enhancement of TGF-β1-stimulated luciferase activity ([1]; 1 μM, 16 hr, 50 pM TGF-β1) [fold] | effect on the LDL and cholesterol suppression of PAI-1 expression (PAI-1 expression; 25 μg/ml nystatin present, data not shown)
1 | CC(C)CCC[C@@H](C)[C@H]1CC[C@H]2[C@@H]3CC=C4C[C@@H](O)CC[C@]4(C)[C@H]3CC[C@]12C [cholesterol] | 65-70% | increased the localization of TβR-II in lipid rafts/caveolae | enriched in the lipid raft/caveolae fractions | did not alter | 40 | 2314±120 | abolished | – | – | – | –
2 | CC[C@H](C)C(=O)O[C@H]1C[C@@H](C)C=C2C=C[C@H](C)[C@H](CC[C@@H]3C[C@@H](O)CC(=O)O3)[C@H]21 [lovastatin, reference compound] | – | increased the localization of TβR-II in non-lipid raft microdomains | – | – | – | – | – | did not enhance | 3 | 1.7 | –
3 | C[C@@H]1[C@H](O)[C@@H](C)/C=C/C=C/CC/C=C/C=C/C=C/C=C/C(O[C@H]2O[C@H](C)[C@@H](O)[C@H](N)[C@@H]2O)CC2O[C@](O)(CC(O)C(O)CCC(O)CC(O)CC(O)CC(=O)O[C@H]1C)CC(O)C2C(=O)O (stereo partly shown) [nystatin, reference compound] | – | increased the localization of TβR-II in non-lipid raft microdomains | – | – | – | – | – | – | – | – | abolished
